Values quoted from earlier work as cited in patent US20030225129A1, “Polymorphs of clopidogrel hydrogensulfate” (priority 2002, published 2003).

Key:
platelet activity = conditions: after administration
[1] = in vivo

COC(=O)[C@H](c1ccccc1Cl)N1CCc2sccc2C1 [clopidogrel, methyl (+)-(S)-∝-(o-chlorophenyl)-6,7-dihydrothieno[3,2-c]pyridine-5(4H)-acetate]
duration of antiplatelet activity (platelet activity): up to ten days after administration
gastrointestinal bleeding relative to aspirin [1]: much less gastrointestinal bleeding than aspirin
effectiveness relative to aspirin at stated dosages (platelet aggregation; 75 mg of base equivalent versus 325 mg of aspirin): more effective
effectiveness in blocking platelet aggregation relative to aspirin (platelet aggregation; versus aspirin, even at much lower dosage): more effective in blocking platelet aggregation than aspirin
